Assay results as given in patent US20230301885A1, “NOVEL USE” (DSM IP ASSETS B.V., priority 2020, published 2023).

Columns and labels:
[1] = tested on: S. mitis; assay: Microbiome balance model, dry skin mixture: S. mitis; format: cell-based, Streptococcus mitis; settings: 4 h at 37° C.
Protocol: (§1) Thus, in particular the term ‘by not unproportionally affecting the growth of anyone thereof’ refers to a balancing of at least two, preferably all dry skin or sebaceous skin microbes as defined herein in the mutual presence thereof, wherein only small changes in the difference in the (individual) shares of the microbes compared to the corresponding shares of the control are observed. Preferably, the small changes in the (individual) share (after 4 h of incubation at 37° C.) is less than ±15%, in particular less than ±10%, most in particular less than ±7.5%, compared to the control. Said change in the share is calculated as: share of the respective microbe within the group of at least two, preferably all microbes of dry or sebaceous skin in the presence of 1,3-PDO [%] minus share of the same microbe within the same group of microbes in the absence of 1,3-PDO [%], both after 4 h of incubation at 37° C. as illustrated in the example.
(§2) The ‘not unproportionally affected growth’ can also be assessed by determining an overall impact value, by • (1) assessing the impact of the ingredient on the individual microbe (i) and assigning an individual impact value x′(i) to said microbe as outlined below: • [formula] • If x(i) is • a) ≤ 0.1 then an integer x′(i) of 1 is assigned (no impact) • b) >0.1 ≤ 0.5then an integer x′(i) of 2 is assigned (slight impact) • c) > 0.5 then an integer x′(i) of 3 is assigned (significant impact), followed by • (2) assessing the overall effect of the ingredient on the respective microbiome by calculating the overall impact value y with formula (II) • [formula] • with n being the total number of microbes in the respective microbiota, wherein a good balancing is characterized by an overall impact value y of less than 2, preferably less than 1.75, most preferably less than 1.7.
(§3) 5 mL of TSB (Tryptic Say Broth) to which no (Ref.1) or 500 µL of 2 wt.-% of 1,3-propanediol (1,3-PDO) in PBS (Phosphate-buffered saline) have been added. Then this solutions have been inoculated by 500 µL of the respective calibrated mixture of the microbes as outlined below. Directly after inoculation and/or after 4 hours of incubation at 37° C., 100 µL have been taken and plated on an Agar gel petri dish. The microbes have then been counted based on the colony specific morphology and/or size.
(§4) All shares have been rounded.

[2] = tested on: S. capitis; assay: Microbiome balance model, sebaceous skin mixture: S. capitis; format: cell-based, Staphylococcus capitis; settings: 4 h at 37° C.
Protocol: as §1, §2, §3, §4

[3] = tested on: M. globosa; assay: Microbiome balance model, sebaceous skin mixture: M. globosa; format: cell-based, Malassezia globosa; settings: 4 h at 37° C.
Protocol: as §1, §2, §3, §4

[4] = tested on: C. acnes; assay: Microbiome balance model, sebaceous skin mixture: C. acnes; format: cell-based, Cutibacterium acnes; settings: 4 h at 37° C.
Protocol: as §1, §2, §3, §4

[5] = tested on: S. epidermidis; assay: Microbiome balance model, S. epidermidis/S. aureus co-culture: S. epidermidis; format: cell-based, Staphylococcus epidermidis; settings: co-culture with S. aureus
Protocol: (§5) The term ‘share’ as used herein refers to the share of each (individual) microbe, based on the total number of microbes in the respective group of microbes in % (i.e. the at least two, preferably all dry or sebaceous skin microbes as defined herein, respectively S. epidermidis and ), either before or after inoculation (as indicated). The share is calculated using the colony count of the respective (individual) microbe divided by the sum of the colony counts of all microbes of the respective microbiota * 100%.
as §3, §4

[6] = tested on: E. coli; settings: known; cited from earlier work
[7] = tested on: S. epidermidis; assay: Microbiome balance model, sebaceous skin mixture: S. epidermidis; format: cell-based, Staphylococcus epidermidis
Protocol: as §1, §2, §3, §4

[8] = tested on: M. luteus; assay: Microbiome balance model, dry skin mixture: M. luteus; format: cell-based, Micrococcus luteus; settings: 4 h at 37° C.
Protocol: as §1, §2, §3, §4

[9] = tested on: S. aureus; settings: known; cited from earlier work
[10] = tested on: C. tuberculostearicum; assay: Microbiome balance model, dry skin mixture: C. tuberculostearicum; format: cell-based, Corynebacterium tuberculostearicum; settings: 4 h at 37° C.
Protocol: as §1, §2, §3, §4

[11] = tested on: S. oralis; assay: Microbiome balance model, dry skin mixture: S. oralis; format: cell-based, Streptococcus oralis; settings: 4 h at 37° C.
Protocol: as §1, §2, §3, §4

[12] = tested on: P. acnes; assay: Microbiome balance model, dry skin mixture: P. acnes; format: cell-based, Cutibacterium acnes; settings: 4 h at 37° C.
Protocol: as §1, §2, §3, §4

[13] = tested on: C.simulans; assay: Microbiome balance model, sebaceous skin mixture: C. simulans; format: cell-based, Corynebacterium simulans; settings: 4 h at 37° C.
Protocol: as §1, §2, §3, §4

[14] = tested on: M. globosa; assay: Microbiome balance model, dry skin mixture: M. globosa; format: cell-based, Malassezia globosa; settings: 4 h at 37° C.
Protocol: as §1, §2, §3, §4

[15] = tested on: microbes of dry skin; assay: Microbiome balance model, dry skin mixture: total of all microbes; format: cell-based; settings: 4 h at 37° C.
Protocol: (§6) Preferably, the difference in total number of said at least two, preferably all microbes, compared to the respective total number in the absence of 1,3-propanediol (i.e. the control), after 4 h of incubation at 37° C., is within a range of ±50%, preferably ±40%, more preferably ±15%, most preferably ±10%.
as §2, §3, §4

[16] = tested on: S. mitis; assay: Microbiome balance model, sebaceous skin mixture: S. mitis; format: cell-based, Streptococcus mitis; settings: 4 h at 37° C.
Protocol: as §1, §2, §3, §4

[17] = tested on: S. aureus; assay: Microbiome balance model, S. epidermidis/S. aureus co-culture: S. aureus; format: cell-based, Staphylococcus aureus; settings: co-culture with S. epidermidis
Protocol: as §5, §3, §4

[18] = tested on: microbes of sebaceous skin; assay: Microbiome balance model, sebaceous skin mixture: total of all microbes; format: cell-based; settings: 4 h at 37° C.
Protocol: as §6, §2, §3, §4

[19] = tested on: S. hominis; assay: Microbiome balance model, sebaceous skin mixture: S. hominis; format: cell-based, Staphylococcus hominis
Protocol: as §1, §2, §3, §4

[20] = after 4 hours of incubation at 37° C.
[21] = directly after inoculation, 500 µL of 2 wt.-% in PBS in 5 mL TSB

1,3-Propanediol [1,3-PDO]
S. mitis change in share vs control [1]: +6%^1 | S. mitis counts of colony [1]: 6600 CFU/ml | S. mitis share [1]: 31% | S. mitis valuation, impact value x(i)′ [1]: 3^3 (> 0.5 then an integer x′(i) of 3 is assigned (significant impact)) | S. capitis counts of colony [2]: 664 CFU/ml | S. capitis share [2]: 6% | S. capitis valuation, impact value x(i)′ [2]: 2^3 (>0.1 ≤ 0.5then an integer x′(i) of 2 is assigned (slight impact)) | M. globosa change in share vs control [3]: -4%^1 | M. globosa counts of colony [3]: 2900 CFU/ml | M. globosa share [3]: 27% | M. globosa valuation, impact value x(i)′ [3]: 2^3 (>0.1 ≤ 0.5then an integer x′(i) of 2 is assigned (slight impact)) | C. acnes change in share vs control [4]: +1%^1 | C. acnes counts of colony [4]: 2664 CFU/ml | C. acnes share [4]: 25% | C. acnes valuation, impact value x(i)′ [4]: 1^3 (≤ 0.1 then an integer x′(i) of 1 is assigned (no impact)) | CSE4h counts of colony of S. epidermidis [5, 20]: 170 CFU/ml | CSE4h share of S. epidermidis [5, 20]: 77% | CSE0 share of S. epidermidis ([5]; directly after inoculation): 89% | CSE0 counts of colony of S. epidermidis [5, 21]: 235 CFU/ml | share of S. epidermidis, effect in words ([5]; t = 0 vs t = 4 h): significantly altered | antimicrobial effect on E. coli [6]: antimicrobial effect | growth of S. epidermidis compared to the control, in words [7]: increased | S. epidermidis change in share vs control ([7]; 4 h at 37° C.): +5%^1 | S. epidermidis counts of colony ([7]; 4 h at 37° C.): 2255 CFU/ml | S. epidermidis share ([7]; 4 h at 37° C.): 21% | S. epidermidis valuation, impact value x(i)′ ([7]; 4 h at 37° C.): 2^3 (>0.1 ≤ 0.5then an integer x′(i) of 2 is assigned (slight impact)) | M. luteus change in share vs control [8]: -1%^1 | M. luteus counts of colony [8]: 873 CFU/ml | M. luteus share [8]: 4% | M. luteus valuation, impact value x(i)′ [8]: 1^3 (≤ 0.1 then an integer x′(i) of 1 is assigned (no impact)) | antimicrobial effect on S. aureus [9]: antimicrobial effect | C. tuberculostearicum change in share vs control [10]: -1%^1 | C. tuberculostearicum counts of colony [10]: 909 CFU/ml | C. tuberculostearicum share [10]: 4% | C. tuberculostearicum valuation, impact value x(i)′ [10]: 1^3 (≤ 0.1 then an integer x′(i) of 1 is assigned (no impact)) | S. oralis change in share vs control [11]: +5%^1 | S. oralis counts of colony [11]: 5700 CFU/ml | S. oralis share [11]: 27% | S. oralis valuation, impact value x(i)′ [11]: 3^3 (> 0.5 then an integer x′(i) of 3 is assigned (significant impact)) | P. acnes change in share vs control [12]: -4%^1 | P. acnes counts of colony [12]: 3200 CFU/ml | P. acnes share [12]: 15% | P. acnes valuation, impact value x(i)′ [12]: 1^3 (≤ 0.1 then an integer x′(i) of 1 is assigned (no impact)) | C.simulans counts of colony [13]: 627 CFU/ml | C.simulans share [13]: 6% | C.simulans valuation, impact value x(i)′ [13]: 1^3 (≤ 0.1 then an integer x′(i) of 1 is assigned (no impact)) | M. globosa change in share vs control [14]: -6%^1 | M. globosa counts of colony [14]: 3800 CFU/ml | M. globosa share [14]: 18% | M. globosa valuation, impact value x(i)′ [14]: 1^3 (≤ 0.1 then an integer x′(i) of 1 is assigned (no impact)) | Change of total CFU/ml vs control [15]: +38%^2 | Total counts of colony [15]: 21082 CFU/ml | overall impact value [15]: 1.7^4 | S. mitis change in share vs control [16]: -2%^1 | S. mitis counts of colony [16]: 1300 CFU/ml | S. mitis share [16]: 12% | S. mitis valuation, impact value x(i)′ [16]: 2^3 (>0.1 ≤ 0.5then an integer x′(i) of 2 is assigned (slight impact)) | CSA4h counts of colony of S. aureus [17, 20]: 50 CFU/ml | CSA4h share of S. aureus [17, 20]: 23% | CSA0 share of S. aureus ([17]; directly after inoculation): 11% | CSA0 counts of colony of S. aureus [17, 21]: 30 CFU/ml | Change of total CFU/ml vs control [18]: -7%^2 | Total counts of colony [18]: 10783 CFU/ml | Total share [18]: 100% | overall impact value y [18]: 1.6^4 | growth of S. hominis compared to the control, in words [19]: increased | S. hominis counts of colony ([19]; 4 h at 37° C.): 373 CFU/ml | S. hominis share ([19]; 4 h at 37° C.): 3% | S. hominis valuation, impact value x(i)′ ([19]; 4 h at 37° C.): 1^3 (≤ 0.1 then an integer x′(i) of 1 is assigned (no impact))
